The record followed here is ChEMBL document CHEMBL3868587, “Heptaketides from an Endolichenic Fungus Biatriospora sp. and Their Antifungal Activity” (2016).

The nature of experiment [1]: Antifungal activity against fluconazole-resistant Candida albicans clinical isolate 142 by CLSI broth microdilution method. Format: functional.
The test system of experiment [2] is Candida albicans. Description: Inhibition of Candida albicans clinical isolate 24D CDR1/CDR2 assessed as inhibtion of glucose-induced rhodamine-123 efflux at 1 ug/ml measured after 30 mins by confocal microscopic analysis.
Experiment [3] has as its system Candida albicans. Put plainly: Inhibition of CDR1/CDR2 in Candida albicans clinical isolate 144 assessed as potentiation of fluconazole-induced antifungal activity up to 8 ug/ml after 24 hrs by broth microdilution checkerboard assay.
In experiment [4] the test system is Candida albicans. Put plainly: Antifungal activity against Candida albicans clinical isolate 144 after 24 hrs in presence of fluconazole by XTT based broth microdilution assay. Format: functional. Conditions: isolate 144, 24 h. (Tetrazolium assays rely on reduction of a dye to a coloured formazan, in cell work by metabolically active cells.)
The test system of experiment [5] is Candida albicans. Description: Inhibition of Candida albicans clinical isolate 24D CDR1/CDR2 assessed as inhibtion of glucose-induced rhodamine-123 efflux at 1 ug/ml measured after 30 mins by flow cytometry. Background: Flow cytometry measures light scatter and fluorescence of single cells or particles in a stream.
The subject of experiment [6] is Candida albicans. Description: Inhibition of CDR1/CDR2 in Candida albicans clinical isolate 145 assessed as potentiation of fluconazole-induced antifungal activity up to 8 ug/ml after 24 hrs by broth microdilution checkerboard assay. On the technique in general: In broth dilution the organism is exposed to a series of concentrations in liquid medium.
Experiment [7] deals with Candida albicans. Description: Inhibition of CDR1/CDR2 in Candida albicans clinical isolate 142 assessed as potentiation of fluconazole-induced antifungal activity measured as reduction in fluconazole MIC80 up to 8 ug/ml after 24 hrs by XTT based broth microdilution assay relative to fluconazole.
Experiment [8] is described as follows: Antifungal activity against fluconazole-resistant Candida albicans clinical isolate 18I by CLSI broth microdilution method. Format: functional.
Experiment [9] is described as follows: Antifungal activity against Candida albicans clinical isolate 18I after 24 hrs in presence of fluconazole by XTT based broth microdilution assay. The class given is functional.
Experiment [10] in a line: Upregulation of CDR1 mRNA expression in fluconazole-resistant Candida albicans clinical isolate 24D at 2 ug/ml measured after 12 hrs by qPCR method relative to control. The class given is functional.
The subject of experiment [11] is Candida albicans. Put plainly: Inhibition of CDR1/CDR2 in Candida albicans clinical isolate 24D assessed as potentiation of fluconazole-induced antifungal activity up to 8 ug/ml after 24 hrs by broth microdilution checkerboard assay.
A short description of experiment [12]: Antifungal activity against fluconazole-resistant Candida albicans clinical isolate 145 by CLSI broth microdilution method. Format: functional.
Experiment [13] can be described thus: Reduction in CDR1 mRNA expression in fluconazole-resistant Candida albicans clinical isolate 24D at 1 ug/ml measured after 12 hrs by qPCR method relative to control. Format: functional.
Experiment [14] in a line: Antifungal activity against fluconazole-resistant Candida albicans clinical isolate 24D by CLSI broth microdilution method. The class given is functional.
Experiment [15] in a line: Reduction in CDR2 mRNA expression in fluconazole-resistant Candida albicans clinical isolate 24D at 1 ug/ml measured after 12 hrs by qPCR method relative to control. Format: functional.
Experiment [16] has as its system Candida albicans. Put plainly: Inhibition of CDR1/CDR2 in Candida albicans clinical isolate 147 assessed as potentiation of fluconazole-induced antifungal activity up to 8 ug/ml after 24 hrs by broth microdilution checkerboard assay.
The nature of experiment [17]: Antifungal activity against Candida albicans clinical isolate 147 after 24 hrs in presence of fluconazole by XTT based broth microdilution assay. The class given is functional.
In experiment [18] the test system is Candida albicans. Put plainly: Inhibition of CDR1/CDR2 in Candida albicans clinical isolate 18I assessed as potentiation of fluconazole-induced antifungal activity up to 8 ug/ml after 24 hrs by broth microdilution checkerboard assay.
Experiment [19] in a line: Antifungal activity against fluconazole-resistant Candida albicans clinical isolate 147 by CLSI broth microdilution method. The class given is functional.
Experiment [20] in a line: Antifungal activity against Candida albicans clinical isolate 24D after 24 hrs in presence of fluconazole by XTT based broth microdilution assay. Format: functional.
Experiment [21] concerns Candida albicans. Put plainly: Antifungal activity against Candida albicans clinical isolate 142 after 24 hrs in presence of fluconazole by XTT based broth microdilution assay. The class given is functional. Conditions: isolate 142, 24 h.
Experiment [22] can be described thus: Antifungal activity against fluconazole-resistant Candida albicans clinical isolate 144 by CLSI broth microdilution method. Format: functional.
The nature of experiment [23]: Upregulation of CDR2 mRNA expression in fluconazole-resistant Candida albicans clinical isolate 24D at 2 ug/ml measured after 12 hrs by qPCR method relative to control. Format: functional.
Experiment [24] concerns Candida albicans. Description: Inhibition of CDR1/CDR2 in Candida albicans clinical isolate 142 assessed as potentiation of fluconazole-induced antifungal activity up to 8 ug/ml after 24 hrs by broth microdilution checkerboard assay.
Experiment [25] has as its system Candida albicans. Description: Antifungal activity against Candida albicans clinical isolate 145 after 24 hrs in presence of fluconazole by XTT based broth microdilution assay. Format: functional. As to conditions: isolate 145, 24 h.
The test system of experiment [26] is Candida albicans. Description: Antifungal activity against Candida albicans SC5314 by CLSI broth microdilution method. The class given is functional.
Experiment [27] concerns Candida albicans. Put plainly: Inhibition of CDR1/CDR2 in Candida albicans clinical isolate 145 assessed as potentiation of fluconazole-induced antifungal activity by measuring fluconazole MIC80 up to 8 ug/ml after 24 hrs by XTT based broth microdilution assay (reference value: >128 ug/ml).
Experiment [28] relates to Candida albicans. Put plainly: Inhibition of CDR1/CDR2 in Candida albicans clinical isolate 24D assessed as potentiation of fluconazole-induced antifungal activity by measuring fluconazole MIC80 up to 8 ug/ml after 24 hrs by XTT based broth microdilution assay (reference value: >128 ug/ml).
Experiment [29] has as its system Candida albicans. Put plainly: Inhibition of CDR1/CDR2 in Candida albicans clinical isolate 147 assessed as potentiation of fluconazole-induced antifungal activity by measuring fluconazole MIC80 up to 8 ug/ml after 24 hrs by XTT based broth microdilution assay (reference value: >128 ug/ml).
The test system of experiment [30] is Candida albicans. Description: Inhibition of CDR1/CDR2 in Candida albicans clinical isolate 18I assessed as potentiation of fluconazole-induced antifungal activity by measuring fluconazole MIC80 up to 8 ug/ml after 24 hrs by XTT based broth microdilution assay (reference value: >128 ug/ml).
In experiment [31] the test system is Candida albicans. Put plainly: Inhibition of CDR1/CDR2 in Candida albicans clinical isolate 144 assessed as potentiation of fluconazole-induced antifungal activity by measuring fluconazole MIC80 up to 8 ug/ml after 24 hrs by XTT based broth microdilution assay (reference value: >128 ug/ml).
The subject of experiment [32] is Candida albicans. Description: Inhibition of CDR1/CDR2 in Candida albicans clinical isolate 142 assessed as potentiation of fluconazole-induced antifungal activity by measuring fluconazole MIC80 up to 8 ug/ml after 24 hrs by XTT based broth microdilution assay (reference value: >128 ug/ml).

Values after ≈ are worked out from the molar mass of the structure shown. Active and inactive are the calls of the source. The rule behind the calls is not given here. Where only a bound is given, the exact number is not on record here.

As to `COc1cc(O)c2c(c1)-c1oc(C)cc1C(=O)C2=O`, the MIC80 in experiment [1] was 16 µg/mL (≈ 62 µM); in [4] it was 0.125 µg/mL; in experiment [8], 16 µg/mL (≈ 62 µM); in experiment [9], 0.25 µg/mL; in experiment [12], 16 µg/mL (≈ 62 µM); in [14], 16 µg/mL (≈ 62 µM). Moreover, the MIC80 in experiment [17] amounted to 0.125 µg/mL; in experiment [19], 16 µg/mL (≈ 62 µM); in experiment [20], 0.25 µg/mL; in [21], 0.125 µg/mL; in [22], 16 µg/mL (≈ 62 µM); in experiment [25], 0.125 µg/mL. In experiment [26], the MIC80 stood at 16 µg/mL (≈ 62 µM). The inhibition entry in experiment [2] and in experiment [5] was “Active” in each case. Also, the fractional inhibitory concentration index (FICI) stood at 0.02 in experiment [3]; 0.04 in experiment [6]; 0.03 in experiment [11]; 0.02 in [16]; 0.02 in [18]; 0.01 in experiment [24]. For the same compound, the fold change (FC) is over 256 in experiment [7]; 2 in experiment [10]; 0.4 in experiment [13]; 0.5 in experiment [15]; 3.6 in experiment [23].

Regarding `COc1cc(O)c2c(c1)C(=O)C1=C(C2=O)[C@H](OC)O[C@@H](C)C1`, the MIC80 in [26] turned out to be 64 µg/mL (≈ 210 µM).

As for `CN(C/C=C/C#CC(C)(C)C)Cc1cccc2ccccc12` [TERBINAFINE], the MIC80 in experiment [26] amounted to 16 µg/mL (≈ 54.9 µM).

`COc1cc(O)c2c(c1)C(=O)C(CC(C)=O)=C(C)C2=O` registered an MIC80 in experiment [26] of 64 µg/mL (≈ 233 µM).

In the case of `OC(Cn1cncn1)(Cn1cncn1)c1ccc(F)cc1F` [FLUCONAZOLE], the MIC80 is over 128 µg/mL in [1]; 4 µg/mL in experiment [27]; over 128 µg/mL in experiment [8]; over 128 µg/mL in [12]; over 128 µg/mL in [14]; over 128 µg/mL in experiment [19]. Further, the MIC80 in [28] was 2 µg/mL; in experiment [29], 2 µg/mL; in experiment [22] it was over 128 µg/mL; in [30], 1 µg/mL; in experiment [31] it was 2 µg/mL; in experiment [26] it was 2 µg/mL (≈ 6.53 µM). The MIC80 in [32] was determined as 0.5 µg/mL.

For the compound `CC1=CC2=C(CO1)C(=O)c1c(O)cc(O)cc1C2=O`, the MIC80 in experiment [26] turned out to be 32 µg/mL (≈ 124 µM).
